Experimental data from ChEMBL document CHEMBL4308908, “Lamellarin-inspired potent topoisomerase I inhibitors with the unprecedented benzo[g][1]benzopyrano[4,3-b]indol-6(13H)-one scaffold” (Bioorg Med Chem, 2019).
Calls of active or inactive are those of the source. No cut-off for these calls is given here.

Assays:
[1] = target: T1, DNA topoisomerase I (Bos taurus) (UniProt F1MN93); experiment: Inhibition of calf thymus DNA topoisomerase 1 assessed as reduction in enzyme-mediated relaxation of supercoiled pBR322 plasmid DNA at 10 uM after 30 mins by ethidium bromide staining-based agarose gel electrophoresis
T1 sequence (whole entry): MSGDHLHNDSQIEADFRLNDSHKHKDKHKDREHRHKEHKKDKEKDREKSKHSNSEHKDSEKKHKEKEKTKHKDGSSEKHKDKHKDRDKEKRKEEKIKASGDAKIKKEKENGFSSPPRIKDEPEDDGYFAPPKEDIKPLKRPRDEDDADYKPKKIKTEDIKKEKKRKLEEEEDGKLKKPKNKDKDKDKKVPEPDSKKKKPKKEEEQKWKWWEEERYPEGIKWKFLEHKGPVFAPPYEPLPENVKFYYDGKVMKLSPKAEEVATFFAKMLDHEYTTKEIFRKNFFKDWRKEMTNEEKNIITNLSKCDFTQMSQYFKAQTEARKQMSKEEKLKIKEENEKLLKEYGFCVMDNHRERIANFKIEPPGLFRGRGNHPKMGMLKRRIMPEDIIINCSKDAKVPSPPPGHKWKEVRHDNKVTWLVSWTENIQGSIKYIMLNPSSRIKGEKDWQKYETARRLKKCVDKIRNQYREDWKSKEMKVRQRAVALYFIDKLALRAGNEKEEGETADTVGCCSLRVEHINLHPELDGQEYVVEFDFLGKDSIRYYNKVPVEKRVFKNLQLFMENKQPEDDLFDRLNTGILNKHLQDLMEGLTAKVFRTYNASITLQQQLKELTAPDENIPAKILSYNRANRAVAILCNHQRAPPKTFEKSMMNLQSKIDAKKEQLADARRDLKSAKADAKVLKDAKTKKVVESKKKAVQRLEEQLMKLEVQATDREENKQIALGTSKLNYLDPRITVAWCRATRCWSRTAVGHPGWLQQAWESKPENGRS

[2] = Antiproliferative activity against human HBC4 cells after 48 hrs by SRB assay; type: functional; details: HBC4, 48 h
[3] = Antiproliferative activity against human HBC5 cells after 48 hrs by SRB assay; type: functional; details: HBC5, 48 h
MCF7 = experiment: Antiproliferative activity against human MCF7 cells after 48 hrs by SRB assay; type: functional; details: MCF7, 48 h
MDA-MB-231 = experiment: Antiproliferative activity against human MDA-MB-231 cells after 48 hrs by SRB assay; type: functional; details: MDA-MB-231, 48 h
U-251 = experiment: Antiproliferative activity against human U251 cells after 48 hrs by SRB assay; type: functional; details: U-251, 48 h
SF-268 = experiment: Antiproliferative activity against human SF268 cells after 48 hrs by SRB assay; type: functional; details: SF-268, 48 h
SF-295 = experiment: Antiproliferative activity against human SF295 cells after 48 hrs by SRB assay; type: functional; details: SF-295, 48 h
SF-539 = experiment: Antiproliferative activity against human SF539 cells after 48 hrs by SRB assay; type: functional; details: SF-539, 48 h
SNB-75 = experiment: Antiproliferative activity against human SNB75 cells after 48 hrs by SRB assay; type: functional; details: SNB-75, 48 h
HCC 2998 = experiment: Antiproliferative activity against human HCC2998 cells after 48 hrs by SRB assay; type: functional; details: HCC 2998, 48 h
KM12 = experiment: Antiproliferative activity against human KM12 cells after 48 hrs by SRB assay; type: functional; details: KM12, 48 h
HCT-15 = experiment: Antiproliferative activity against human HCT15 cells after 48 hrs by SRB assay; type: functional; details: HCT-15, 48 h
HCT-116 = experiment: Antiproliferative activity against human HCT116 cells after 48 hrs by SRB assay; type: functional; details: HCT-116, 48 h
NCI-H23 = experiment: Antiproliferative activity against human NCI-H23 cells after 48 hrs by SRB assay; type: functional; details: NCI-H23, 48 h
NCI-H522 = experiment: Antiproliferative activity against human NCI-H522 cells after 48 hrs by SRB assay; type: functional; details: NCI-H522, 48 h
NCI-H460 = experiment: Antiproliferative activity against human NCI-H460 cells after 48 hrs by SRB assay; type: functional; details: NCI-H460, 48 h
DMS-273 = experiment: Antiproliferative activity against human DMS273 cells after 48 hrs by SRB assay; type: functional; details: DMS-273, 48 h
LOX IMVI = experiment: Antiproliferative activity against human LOXIMVI cells after 48 hrs by SRB assay; type: functional
OVCAR-3 = experiment: Antiproliferative activity against human OVCAR3 cells after 48 hrs by SRB assay; type: functional; details: OVCAR-3, 48 h
OVCAR-4 = experiment: Antiproliferative activity against human OVCAR4 cells after 48 hrs by SRB assay; type: functional; details: OVCAR-4, 48 h
OVCAR-5 = experiment: Antiproliferative activity against human OVCAR5 cells after 48 hrs by SRB assay; type: functional; details: OVCAR-5, 48 h
OVCAR-8 = experiment: Antiproliferative activity against human OVCAR8 cells after 48 hrs by SRB assay; type: functional; details: OVCAR-8, 48 h
SK-OV-3 = experiment: Antiproliferative activity against human SKOV3 cells after 48 hrs by SRB assay; type: functional; details: SK-OV-3, 48 h
RXF 631 = experiment: Antiproliferative activity against human RXF631L cells after 48 hrs by SRB assay; type: functional; details: RXF 631, 48 h
ACHN = experiment: Antiproliferative activity against human ACHN cells after 48 hrs by SRB assay; type: functional
MKN-1 = experiment: Antiproliferative activity against human MKN1 cells after 48 hrs by SRB assay; type: functional; details: MKN-1, 48 h
MKN-28 = experiment: Antiproliferative activity against human MKN28 cells after 48 hrs by SRB assay; type: functional; details: MKN-28, 48 h
MKN-74 = experiment: Antiproliferative activity against human MKN74 cells after 48 hrs by SRB assay; type: functional; details: MKN-74, 48 h
DU-145 = experiment: Antiproliferative activity against human DU145 cells after 48 hrs by SRB assay; type: functional; details: DU-145, 48 h
PC-3 = experiment: Antiproliferative activity against human PC3 cells after 48 hrs by SRB assay; type: functional; details: PC-3, 48 h
Colon 26 = experiment: Antitumor activity against mouse Colon 26 cells implanted in BALB/c mouse at 50 mg/kg, iv administered every 2 days for 7 times starting 1 day after tumor implantation and measured daily until day 20; type: functional, organism-based
[4] = Toxicity in mouse Colon 26 cells implanted BALB/c mouse assessed as induction of body weight loss at 50 mg/kg, iv administered every 2 days for 7 times starting 1 day after tumor implantation and measured daily until day 20; type: organism-based; details: in vivo

What does the source list for COc1cc2c(ccc3c4c(=O)oc5cc(OC(=O)[C@@H](N)C(C)C)c(OC)cc5c4n(C)c23)cc1OC(=O)[C@@H](N)C(C)C.O=C(O)C(F)(F)F.O=C(O)C(F)(F)F?
inhibition [1]: Active; GI50 [2]: 10 nM; GI50 [3]: 138 nM; GI50 (MCF7; read-out: GI50): 6.1 nM; GI50 (MCF7; read-out: pGI50 (converted)): 6.17 nM; GI50 (MDA-MB-231): 148 nM; GI50 (U-251; read-out: GI50): 3.4 nM; GI50 (U-251; read-out: pGI50 (converted)): 3.39 nM; GI50 (SF-268): 8.32 nM; GI50 (SF-295): 12.9 nM; GI50 (SF-539): 4.17 nM; GI50 (SNB-75): 8.32 nM; GI50 (HCC 2998): 91.2 nM; GI50 (KM12): 57.5 nM; GI50 (HCT-15): 58.9 nM; GI50 (HCT-116; read-out: GI50): 15 nM; GI50 (HCT-116; read-out: pGI50 (converted)): 15.5 nM; GI50 (NCI-H23): 4.9 nM; GI50 (NCI-H522; read-out: GI50): 3.4 nM; GI50 (NCI-H522; read-out: pGI50 (converted)): 3.47 nM; GI50 (NCI-H460): 4.37 nM; GI50 (DMS-273): 4.27 nM; GI50 (LOX IMVI; read-out: GI50): 2.5 nM; GI50 (LOX IMVI; read-out: pGI50 (converted)): 2.51 nM; GI50 (OVCAR-3): 56.2 nM; GI50 (OVCAR-4): 36.3 nM; GI50 (OVCAR-5): 45.7 nM; GI50 (OVCAR-8): 13.5 nM; GI50 (SK-OV-3; read-out: GI50): 20 nM; GI50 (SK-OV-3; read-out: pGI50 (converted)): 19.9 nM; GI50 (RXF 631): 1000 nM; GI50 (ACHN; read-out: GI50): 2.9 nM; GI50 (ACHN; read-out: pGI50 (converted)): 2.88 nM; GI50 (MKN-1): 44.7 nM; GI50 (MKN-28; read-out: GI50): 41 nM; GI50 (MKN-28; read-out: pGI50 (converted)): 40.7 nM; GI50 (MKN-74): 75.9 nM; GI50 (DU-145; read-out: GI50): 3.2 nM; GI50 (DU-145; read-out: pGI50 (converted)): 3.16 nM; GI50 (PC-3): 70.8 nM; Activity (Colon 26): Active; Activity [4]: Non-Toxic
